According to patent publication US12319675B2 (Artax Biopharma Inc., priority 2018, dated 2025):

What was measured:
[1] = Microsomal stability assay, mouse; type: in vitro ADME; conditions: mouse microsomes, read-out: Microsomal Stability (T1/2 min) Mouse
Method: (§1) Microsomal stability assays were performed using mouse, rat, and human […] according to methods well-known in the art. Microsomal stability results are shown in Table 2 for selected compounds of the invention. The compound numbers correspond to the compound numbers in Table 1. […] “N/A” indicates not assayed.

[2] = test system: CD3 mediated phosphorylation of ZAP70 in Jurkat cells; test: CD3 mediated phosphorylation of ZAP70 in Jurkat cells (HTRF); type: cell-based; conditions: Homo sapiens, Jurkat cells stimulated with 20 μg/mL anti-CD3 antibody
Method: Inhibition of CD3 mediated phosphorylation of ZAP70 in Jurkat cells was measured by a cellular based Homogeneous Time-Resolved Fluorescence (HTRF) assay utilizing a Total ZAP-70 HTRF kit.
Briefly, Jurkat cells (˜1.3×10^6 cells/mL) were harvested on the day of experimentation. Cells were washed with PBS and resuspended in Assay Buffer (RPMI 1640 media plus 10% FBS) and counted.
Jurkat cells were seeded in Assay media at a total volume of 4 μL/well (40K cells/well) in a 384-low volume white flat bottom plate. The cells were then incubated at 37° C./5% CO2 for 30 minutes. The cells were then treated in duplicate with test compounds (3×) and reference compounds (3×) in a total volume of 4 μL, respectively. A compound dilution scheme is exemplified in FIG. 1.
The plate was then transferred to an incubator maintained at 37° C./5% CO2 for 2 minutes. Following incubation, cells were stimulated with 20 μg/mL of anti-CD3 antibody (1 mg/mL stock) and assay media was used to bring the total well volume 4 μL/well. The plate was then transferred to the incubator maintained at 37° C./5% CO2 for 2.5 minutes. Following incubation, 4 μL of lysis buffer (4×) provided in the kit was added to each well. The plate was then incubated at RT for 1 hour with gentle shaking. Following incubation, 4 μL of detection mix was added to each well and the plate was sealed with a plate sealer and left overnight at RT in the dark.
The Envision reader was set-up for Eu^3+ cryptate and fluorescence emission was read at two different wavelengths (620 nm and 665 nm). • Excitation filter: UV2(TRF) 320 nm • Emission filter: 665 nm • 2nd Emission filter: Europium 615 nm • Measurement height (mm): 6.5 • Excitation light (%): 100 • Delay (μs): 50 • Window time (μs): 400 • Time between flashes (μs): 2000 • Number of flashes: 100 • Number of flashes for 2nd detector: 100
The data is represented by the signal form the two wavelengths:
The ratio of the signal is calculated for each individual well:
The data was plotted using Graph Pad Prism. The significance between untreated vs. treated groups was assessed by One-way ANOVA and Bonferroni posttest comparing all columns in the graph.
ZAP70 IC50 results are shown in Table 6 for select compounds of the invention. The compound numbers correspond to the compound numbers in Table 1. […] “ND” indicates not determined.
ZAP70 percent maximum inhibition results are shown in Table 7 for select compounds of the invention. The compound numbers correspond to the compound numbers in Table 1.

[3] = Microsomal stability assay, rat; type: in vitro ADME; conditions: rat microsomes, read-out: Microsomal Stability (T1/2 min) Rat
Method: as §1

[4] = target: Nck SH3 domain interaction with the proline rich sequence of TCR subunit CD3ε (Homo sapiens, UniProt P16333); test: Competitive binding, biosensor with Interferometric Optical Detection Method (IODM); conditions: ratio of 1:1 between Nck SH3 domain and inhibitors; biotinylated CD3ε peptide on sensing surface
Method: Inhibition of Nck SH3 domain interaction with the proline rich sequence of TCR subunit CD3ε was measured by optical read-out of a biosensor based on the Interferometric Optical Detection Method (IODM), using established methods (WO 2010/026269; WO 2014/020159; Laguna, M. et al., Sensors, 2015, 15(8):19819-29; and Holgado, M. et al., Sensors, 2014, 14(2): 3675-89).
Briefly, a Biophotonic Cell (BICELL) based on Fabry-Perot interferometers was used as the photonic transducer. The BICELL was fabricated using SU8 in cyclopentanone according to known methods (e.g., Laguna, M. F. et al., Sensors, 2014, 14(4): 6695-6700). Cured film was then treated with 95% sulfuric acid for 10 seconds. Streptavidin was then immobilized on the sensing surface in phosphate buffered saline (PBS; pH 7.4) over 20 min at 37° C. followed by blocking of the surface with 5% skin milk in PBS (pH 7.4). Biotinylated CD3ε peptide (SEQ ID NO: 001) in PBS (pH 7.4) was incubated with the streptavidin coated film to biofunctionalize the sensing surface (20 min at 37° C.).
Competitive binding assays were performed to determine the affinity reaction of inhibitors. The screening was carried out using a ratio of 1:1 between Nck SH3 domain and inhibitors. The optical readout of the biosensor was accomplished by a Fourier transform visible-infrared (FT-VIS-IR) spectrometer. Competitive binding results are shown in Table 3 for selected compounds of the invention. The compound numbers correspond to the compound numbers in Table 1. Compounds having a designation of “A” provide an Increased Relative Optical Power (ΔIROP) of less than or equal to thirty percent (≤30%); compounds having a designation of “B” provide a ΔIROP of between thirty and fifty percent (>30% to ≤50%); compounds having a designation of “C” provide an ΔIROP of between fifty and seventy percent (>50% to ≤70%); and compounds having a designation of “D” provide a ΔIROP of greater than seventy percent (>70%).

[5] = Microsomal stability assay, human; type: in vitro ADME; conditions: human microsomes, read-out: Microsomal Stability (T1/2 min) Human
Method: as §1

Structure (SMILES): [2H]C([2H])([2H])Oc1ccc2c(c1)C(c1ccc(F)cc1)=C(CN1CCCC1)CO2 [Compound I-13]
- half-life [1]: < 10 min
- Emax ([2]; maximum inhibition, read-out: pZAP70 Inhibition - Maximum Percent Inhibition (% Inhibition)): 40 to 50%
- IC50 ([2]; read-out: pZAP70 Inhibition IC50): 1 to 10 nM
- half-life [3]: < 10 min
- ΔIROP (Increased Relative Optical Power) [4]: A (an Increased Relative Optical Power (ΔIROP) of less than or equal to thirty percent (≤30%))
- half-life [5]: 10 to 30 min
